Activity calls are given as the source filed them. No cut-off for these calls is given here.
How the values were obtained:
Mus musculus [1] = assay: (§1) Reno-protective activity against CLP-induced acute kidney injury C57BL/6J mouse model assessed as decrease in tubular injury at 20 mg/kg, ip administered twice at 30 mins prior to CLP operation and 8 hrs post-CLP operation and measured at 16 hrs post-CLP operation by Hematoxylin-Eosin staining based analysis; format: functional, organism-based; details: time 16.5 hrs
[2] = Toxicity in C57BL/6J mouse assessed as pathological changes in liver at 20 mg/kg, ip administered twice at 0 hrs and 8 hrs and measured after 16 hrs by Hematoxylin-Eosin staining based analysis; format: organism-based; details: in vivo
Mus musculus [3] = assay: as §1, with “caspase-1 mRNA expression in kidney” for “tubular injury”, “RT-qPCR” for “Hematoxylin-Eosin staining based”; format: functional, organism-based; details: time 16.5 hrs
[4] = Oral bioavailability in BALB/c mouse at 10 mg/kg measured for 24 hrs by LC-MS/MS analysis; format: ADME, organism-based; details: in vivo
[5] = AUC(0 to t) in BALB/c mouse at 10 mg/kg, iv measured for 24 hrs by LC-MS/MS analysis; format: ADME, organism-based; design: time 24 hrs, dose 10 mg/kg, route iv; details: in vivo
[6] = AUC(0 to t) in BALB/c mouse at 10 mg/kg, po measured for 24 hrs by LC-MS/MS analysis; format: ADME, organism-based; design: time 24 hrs, dose 10 mg/kg, route po; details: in vivo
[7] = target: T1, P2X purinoceptor 7 (Mus musculus) (UniProt Q9Z1M0); assay: Antagonist activity at mouse P2X7 receptor expressed in HEK293 cells assessed as inhibition of ATP-induced receptor pore formation at 1 uM by propidium iodide dye uptake based fluorescence analysis; format: cell-based; details: filed as antagonist
T1 sequence (whole entry): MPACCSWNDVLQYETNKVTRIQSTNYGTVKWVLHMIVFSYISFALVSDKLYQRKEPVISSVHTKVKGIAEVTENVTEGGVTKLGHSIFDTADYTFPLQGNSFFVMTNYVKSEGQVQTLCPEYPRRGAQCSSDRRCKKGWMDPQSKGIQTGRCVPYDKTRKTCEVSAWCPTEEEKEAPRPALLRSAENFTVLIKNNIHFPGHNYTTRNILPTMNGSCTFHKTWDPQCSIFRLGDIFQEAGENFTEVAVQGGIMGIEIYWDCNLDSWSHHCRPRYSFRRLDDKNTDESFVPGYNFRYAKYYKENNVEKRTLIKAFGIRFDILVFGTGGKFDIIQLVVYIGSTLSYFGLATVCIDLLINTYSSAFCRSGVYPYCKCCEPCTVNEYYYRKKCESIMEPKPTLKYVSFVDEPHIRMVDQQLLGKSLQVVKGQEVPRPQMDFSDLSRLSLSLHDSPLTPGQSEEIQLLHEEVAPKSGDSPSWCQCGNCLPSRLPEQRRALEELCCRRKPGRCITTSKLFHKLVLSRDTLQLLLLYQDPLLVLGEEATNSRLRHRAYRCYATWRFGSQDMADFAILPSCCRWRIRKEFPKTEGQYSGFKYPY

[8] = Tmax in BALB/c mouse at 10 mg/kg, ip measured for 24 hrs by LC-MS/MS analysis; format: ADME, organism-based; details: in vivo
[9] = Clearance in BALB/c mouse at 10 mg/kg, iv measured for 24 hrs by LC-MS/MS analysis; format: ADME, organism-based; details: in vivo
Cytochrome P450 3A4 = Cytochrome P450 3A4 (Homo sapiens, UniProt P08684); assay: Inhibition of CYP3A4 in human liver microsomes using midazolam as substrate upto 100 uM incubated for 10 mins in presence of NADPH by LC-MS/MS analysis; format: ADME, Microsome
Chain of Cytochrome P450 3A4 (P08684 whole entry): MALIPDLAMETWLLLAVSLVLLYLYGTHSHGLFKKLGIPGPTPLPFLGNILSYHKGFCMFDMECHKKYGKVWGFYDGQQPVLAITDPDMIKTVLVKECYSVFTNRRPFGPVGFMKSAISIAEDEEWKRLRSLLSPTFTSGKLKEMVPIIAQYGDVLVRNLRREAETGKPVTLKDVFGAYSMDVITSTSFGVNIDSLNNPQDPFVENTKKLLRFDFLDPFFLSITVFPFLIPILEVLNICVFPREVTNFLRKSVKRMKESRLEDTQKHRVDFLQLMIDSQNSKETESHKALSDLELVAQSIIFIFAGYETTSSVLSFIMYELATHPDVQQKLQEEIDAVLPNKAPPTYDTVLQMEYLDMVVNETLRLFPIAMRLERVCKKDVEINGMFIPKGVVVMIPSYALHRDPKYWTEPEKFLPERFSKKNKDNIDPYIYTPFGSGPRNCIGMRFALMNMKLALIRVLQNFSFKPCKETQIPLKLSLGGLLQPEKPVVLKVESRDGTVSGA

Mus musculus [10] = assay: as §1, with “GSDMD mRNA expression in kidney” for “tubular injury”, “RT-qPCR” for “Hematoxylin-Eosin staining based”; format: functional, organism-based; details: time 16.5 hrs
[11] = Toxicity in C57BL/6J mouse assessed as mortality at 600 mg/kg, ip measured for 14 days; format: organism-based; details: in vivo, 336 h, time 14 day
HEK293 = assay: Cytotoxicity against human HEK293 cells transfected with mouse P2X7 receptor assessed as effect on cell viability at 1 to 4 uM incubated for 2 hrs by CCK8 assay; format: toxicity, cell-based; details: hek293, 2 h, dose 1-4 µM
Mus musculus [12] = assay: Reno-protective activity against CLP-induced acute kidney injury C57BL/6J mouse model assessed as decrease in serum […] level at 20 mg/kg, ip administered twice at 30 mins prior to CLP operation and 8 hrs post-CLP operation and measured at 16 hrs post-CLP operation; format: functional, organism-based; details: time 16.5 hrs

Q: Which Activity (Mus musculus [1]) does the source give for `CS(=O)(=O)c1ccc(-c2nc(C(=O)NCc3cn(-c4cc(Br)ccn4)nn3)cs2)cc1` here?
A: The Activity was “Active”.

Q: What about the Activity [2] of the same compound?
A: Its Activity is “Non-Toxic”.

Q: And the Activity (Mus musculus [3])?
A: The Activity was “Active”.

Q: And the bioavailability [4]?
A: Its bioavailability is 39.2%.

Q: What about the AUC(0-t) at 24 h [5] of the same compound?
A: The AUC(0-t) at 24 h was 16600 ng·h/mL.

Q: What about the AUC(0-t) at 24 h [6] of the same compound?
A: The AUC(0-t) at 24 h was 6510 ng·h/mL.

Q: And the inhibition [7]?
A: The inhibition was 107%.

Q: And the Tmax [8]?
A: The Tmax was 3 h.

Q: And the clearance [9]?
A: The clearance was 9.83 mL/min/kg.

Q: And the “inhibition (INH)” value (Cytochrome P450 3A4)?
A: The value was “Not Active”.

Q: And the Activity (Mus musculus [10])?
A: The Activity was “Active”.

Q: And the Activity [11]?
A: The Activity was “Toxic”.

Q: And the Activity (HEK293)?
A: The Activity was “Non-Toxic”.

Q: And the Activity (Mus musculus [12])?
A: The Activity was “Active”.

Source: ChEMBL document CHEMBL5360655, “Design, Synthesis, and Biological Evaluation of Novel P2X7 Receptor Antagonists for the Treatment of Septic Acute Kidney Injury” (J Med Chem, 2023)
